Assay results from patent US10364263B2, “Cyclic phosphates and cyclic phosphoramidates for the treatment of neurologic disorders” (Retrophin, Inc., priority 2015, dated 2019).

Columns and labels:
[1] = tested on: PANK2 silenced human neuroblastoma IMR32 cells (PANK2−/−); test: Coenzyme A assay in PANK2 silenced cells (LC-MS quantification of free CoA); type: cell-based; details: compound added twice (24 h + 24 h), relative to 0.1% DMSO controls
Outline: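 Free intracellular CoA was measured by positive-mode LC-MS/MS of 20% TFA extracts, taking 2 μl per 10^6 cells as intracellular volume. Cells were IMR32 with stable lentiviral PANK2 knockdown, dosed twice 24 h apart (48 h total, 0.1% DMSO). Output is fold increase over vehicle.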

[2] = Stability in human plasma; type: in vitro ADME; details: human, plasma, 37° C.
Method: (§1) Compounds and positive control samples were dissolved in 100% DMSO at 3 mM. To investigate the stability of the test compounds in plasma, samples were made by diluting test compounds into plasma from the stock solutions to obtain a test compound concentration of 3 μM (0.1% DMSO). Before addition of a test compound, 990 μl of plasma were preincubated at 37° C. for 5 min in eppendorf. After addition of a test compound, 70 μl for each time point were transferred to a 96-deepwell plate, previously warmed at 37° C. in a DUBNOFF water bath. Each compound was tested at five time points, in duplicate (10, 20, 30, 40 and 60 min). At each time point, an aliquot of 50 μl was taken and transferred to a new 96-deepwell plate, and the reaction was stopped with 200 μl of 100% acetonitrile containing 0.1% formic acid and the appropriate internal standard. Then samples were centrifuged at 1100×g for 30 min at +4° C. and supernatants were transferred to a new 96-deepwell plate. Samples were evaporated under N2 and reconstituted in H2O/ACN 0.1% Formic Acid (98:2). Analysis was performed without a calibration curve (Acquity UPLC-Waters; SciexAPI4000). Time 0 was obtained by adding acetonitrile before addition of the test compound.

[3] = Stability in mouse plasma; type: in vitro ADME; details: mouse, plasma; for t1/2, Mouse Plasma, Diastereoisomer B: 3 µM
Method: as §1

[4] = Diastereoisomer A (upfield shift in 31P NMR), read-out: t1/2, Human Plasma, Diastereoisomer A (converted)
[5] = Diastereoisomer B, read-out: t1/2, Human Plasma, Diastereoisomer B (converted)

Row | Compound | half-life at 3 µM [2, 4] [min] | half-life at 3 µM [2, 5] [min] | half-life at 3 µM [3] [min] | t1/2, Mouse Plasma, Diastereoisomer B [3] [min] | PANK2−/− CoA (Fold Increase): fold increase in Coenzyme A (CoA) levels relative to controls [1] [Fold Increase]
1 | Cc1cc(COC(=O)CCNC(=O)[C@@H]2OP(=O)(OCOC(=O)C(C)(C)C)OCC2(C)C)no1 (single isomer, unassigned) [Compound No. 74] | 46.8 | < 9.6 | < 9.6 | <9.6 | 176
2 | CC(C)(C)C(=O)OCO[P@@]1(=O)OCC(C)(C)[C@H](C(=O)NCCC(=O)OCc2cncs2)O1 (single isomer, unassigned) [Compound No. 79] | > 60 | < 9.6 | < 9.6 | <9.6 | 133.6
3 | CC(C)(C)C(=O)OCO[P@@]1(=O)OCC(C)(C)[C@H](C(=O)NCCC(=O)OCCc2ccccn2)O1 (single isomer, unassigned) [Compound No. 82] | 28.8 | – | < 9.6 | – | 99.82
4 | CC(C)(C)C(=O)OCO[P@@]1(=O)OCC(C)(C)[C@H](C(=O)NCCC(=O)OCC2CCC(=O)N2)O1 (stereo partly drawn) [Compound No. 2-113, (((2S,4R)-5,5-dimethyl-2-oxido-4-((3-oxo-3-((5-oxopyrrolidin-2-yl)methoxy)propyl)carbamoyl)-1,3,2-dioxaphosphinan-2-yl)oxy)methyl pivalate] | 33.6 | – | < 9.6 | – | 7.93
5 | COC(=O)CCNC(=O)[C@@H]1OP(=O)(OCOC(=O)c2ccncc2)OCC1(C)C (stereo partly drawn) [Compound No. 72, (((4R)-4-((3-methoxy-3-oxopropyl)carbamoyl)-5,5-dimethyl-2-oxido-1,3,2-dioxaphosphinan-2-yl)oxy)methyl isonicotinate] | < 9.6 | < 9.6 | < 9.6 | <9.6 | 34.64
6 | COC(=O)CCNC(=O)[C@@H]1OP(=O)(OCOC(=O)[C@H](CC(C)C)NC(C)=O)OCC1(C)C (stereo partly drawn) [Compound No. 73, (((4R)-4-((3-methoxy-3-oxopropyl)carbamoyl)-5,5-dimethyl-2-oxido-1,3,2-dioxaphosphinan-2-yl)oxy)methyl acetyl-L-leucinate] | < 13.8 | < 9.6 | < 9.6 | <9.6 | 6.92
7 | CC(C)(C)OC(=O)CCNC(=O)[C@@H]1OP(=O)(OCOC(=O)C(C)(C)C)OCC1(C)C (stereo partly drawn) [Compound No. 75, (((4R)-4-((3-(tert-butoxy)-3-oxopropyl)carbamoyl)-5,5-dimethyl-2-oxido-1,3,2-dioxaphosphinan-2-yl)oxy)methyl pivalate] | > 60 | < 9.6 | < 9.6 | <9.6 | 1.52
8 | COC(=O)CCNC(=O)[C@@H]1OP(=O)(OCOC(=O)C2(C(N)=O)CC2)OCC1(C)C (stereo partly drawn) [Compound No. 83, (((4R)-4-((3-methoxy-3-oxopropyl)carbamoyl)-5,5-dimethyl-2-oxido-1,3,2-dioxaphosphinan-2-yl)oxy)methyl 1-carbamoylcyclopropane-1-carboxylate] | > 60 | < 9.6 | < 9.6 | <9.6 | 12.02
9 | CC(C)[C@H](N[P@]1(=O)OCC(C)(C)[C@H](C(=O)NCCC(=O)OC(C)(C)C)O1)C(=O)OCCc1ccccc1 [compound 49, phenethyl ((2S,4R)-4-((3-(tert-butoxy)-3-oxopropyl)carbamoyl)-5,5-dimethyl-2-oxido-1,3,2-dioxaphosphinan-2-yl)-L-valinate] | > 60 | – | – | – | 1.09

The next lines start with results.

Row | half-life at 3 µM [2, 4] [min] | half-life at 3 µM [2, 5] [min] | half-life at 3 µM [3] [min] | t1/2, Mouse Plasma, Diastereoisomer B [3] [min] | Compound | PANK2−/− CoA (Fold Increase): fold increase in Coenzyme A (CoA) levels relative to controls [1] [Fold Increase]
10 | 16.8 | – | < 9.6 | – | CCOCCCOC(=O)CCNC(=O)[C@@H]1O[P@@](=O)(OCOC(=O)C(C)(C)C)OCC1(C)C (single isomer, unassigned) [Compound No. 96] | 29.43
11 | > 60 | – | < 9.6 | – | COC(=O)CCNC(=O)[C@@H]1OP(=O)(N[C@H](C)C(=O)OCc2cnccn2)OCC1(C)C (stereo in doubt) [compound 42, methyl 3-((2S,4R)-5,5-dimethyl-2-oxido-2-(((R)-1-oxo-1-(pyrazin-2-ylmethoxy)propan-2-yl)amino)-1,3,2-dioxaphosphinane-4-carboxamido)propanoate] | 2.42
12 | < 9.6 | < 9.6 | < 9.6 | <9.6 | COC(=O)CCNC(=O)[C@@H]1OP(=O)(OCOC(=O)C2(C)CN(C(=O)OC(C)(C)C)C2)OCC1(C)C (stereo partly drawn) [Compound No. 85, 1-(tert-butyl) 3-((((4R)-4-((3-methoxy-3-oxopropyl)carbamoyl)-5,5-dimethyl-2-oxido-1,3,2-dioxaphosphinan-2-yl)oxy)methyl) 3-methylazetidine-1,3-dicarboxylate] | 216.8
13 | 27 | – | < 9.6 | – | CC(C)(C)C(=O)OCO[P@@]1(=O)OCC(C)(C)[C@H](C(=O)NCCC(=O)OC2CCNC2)O1 (stereo partly drawn) [Compound No. 92, (((2S,4R)-5,5-dimethyl-2-oxido-4-((3-oxo-3-(pyrrolidin-3-yloxy)propyl)carbamoyl)-1,3,2-dioxaphosphinan-2-yl)oxy)methyl pivalate] | 5.13
14 | > 60 | – | < 9.6 | – | CC(C)(C)C(=O)OCO[P@@]1(=O)OCC(C)(C)[C@H](C(=O)NCCC(=O)OC2CCN(Cc3ccccc3)C2)O1 (stereo partly drawn) [Compound No. 93, (((2S,4R)-4-((3-((1-benzylpyrrolidin-3-yl)oxy)-3-oxopropyl)carbamoyl)-5,5-dimethyl-2-oxido-1,3,2-dioxaphosphinan-2-yl)oxy)methyl pivalate] | 206.8
15 | > 60 | > 60 | – | – | C[C@H](NP1(=O)OCC(C)(C)[C@H](C(=O)NCCC(=O)OCC2CC2)O1)C(=O)OCCc1ccccc1 (stereo partly drawn) [compound 37, cyclopropylmethyl 3-((4R)-5,5-dimethyl-2-oxido-2-(((S)-1-oxo-1-phenethoxypropan-2-yl)amino)-1,3,2-dioxaphosphinane-4-carboxamido)propanoate] | 1.9
16 | > 60 | > 60 | – | – | C[C@H](NP1(=O)OCC(C)(C)[C@H](C(=O)NCCC(=O)OCc2ccncc2)O1)C(=O)OCCc1ccccc1 (stereo partly drawn) [compound 38, phenethyl ((4R)-5,5-dimethyl-2-oxido-4-((3-oxo-3-(pyridin-4-ylmethoxy)propyl)carbamoyl)-1,3,2-dioxaphosphinan-2-yl)-L-alaninate] | 2.76
17 | > 60 | – | – | – | C[C@H](NP1(=O)OCC(C)(C)[C@H](C(=O)NCCC(=O)OCCN2CCCC2)O1)C(=O)OCCc1ccccc1 (stereo partly drawn) [compound 44, phenethyl ((4R)-5,5-dimethyl-2-oxido-4-((3-oxo-3-(2-(pyrrolidin-1-yl)ethoxy)propyl)carbamoyl)-1,3,2-dioxaphosphinan-2-yl)-L-alaninate] | 1.62
18 | > 60 | – | – | – | COC(=O)CCNC(=O)[C@@H]1O[P@](=O)(N[C@H](C(=O)OCCc2ccccc2)C(C)C)OCC1(C)C [compound 45, phenethyl ((2S,4R)-4-((3-methoxy-3-oxopropyl)carbamoyl)-5,5-dimethyl-2-oxido-1,3,2-dioxaphosphinan-2-yl)-L-valinate] | 1.3
19 | > 60 | – | – | – | C[C@H](NP1(=O)OCC(C)(C)[C@H](C(=O)NCCC(=O)OC[C@H]2CCC(=O)N2)O1)C(=O)OCCc1ccccc1 (stereo partly drawn) [compound 47, ((R)-5-oxopyrrolidin-2-yl)methyl 3-((4R)-5,5-dimethyl-2-oxido-2-(((S)-1-oxo-1-phenethoxypropan-2-yl)amino)-1,3,2-dioxaphosphinane-4-carboxamido)propanoate] | 1.38
